Measurements as given in patent US20200270225A1, “Chiral Diacylhydrazine Ligands for Modulating the Expression of Exogenous Genes via an Ecdysone Receptor Complex” (Intrexon Corporation, priority 2007, published 2020).
Where two headings read alike, the source gives them in different places.

Legend:
[1] = molecular target: T1, [V390I/Y410E/E274V]-CfEcR (Choristoneura fumiferana, UniProt O77240); type: cell-based; settings: 3T3 Cells; for RMFI (relative maximum fold induction): relative to GS-E ligand
T1 construct: assay construct b835
Outline: (§1)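 NIH3T3 cells were transiently co-transfected with GAL4-DBD fused to CfEcR DEF domains (wild-type or V390I/Y410E/E274V), VP16-AD fused to chimeric human/Locusta RXR, and a GAL4-response luciferase reporter. Ligand was given at 8 doses, 0.01–33 µM, 0.33% DMSO, luciferase read at 48 h. EC50 came from fold induction over DMSO via three-parameter logistic fit; Relative Max FI was taken versus GS™-E ligand.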

[2] = molecular target: wild-type Choristoneura fumiferana EcR (D, E and F domains) (Choristoneura fumiferana, UniProt O77240); type: cell-based; settings: WT-CtEcR, 3T3 Cells; for RMFI (relative maximum fold induction): relative to GS-E ligand
Outline: as §1

[3] = test system: RheoSwitch® Therapeutic System (RTS) gene expression; test: In vivo induction of RTS SEAP reporter in electroporated mice; parameters: species or system C57BL6 mice; settings: intraperitoneal injection 26 nmol/mouse; monitored seventeen days
Text: The wild-type D, E, and F domains from spruce budworm Choristoneura fumiferana EcR (“CfEcR-DEF”; SEQ ID NO: 1) were mutated [V107 (gtt)→1107 (att) and Y127 (tac)→E127 (gag)] and fused to a GAL4 DNA binding domain (“Gal4DBD1-147”; SEQ ID NO: 2). Helices 1 through 8 of the EF domains from Homo sapiens RXRPβ (“HsRXRβ-EF”; nucleotides 1-465 of SEQ ID NO: 4) and helices 9 through 12 of the EF domains of Locusta migratoria Ultraspiracle Protein (“LmUSP-EF”; nucleotides 403-630 of SEQ ID NO: 5) were fused to the transactivation domain from VP16 (“VP16AD”; SEQ ID NO: 6), which regulates a reporter gene human secreted alkaline phosphatase (“SEAP”, SEQ ID NO: 12) that was placed under the control of a 6xGAL4 response element (SEQ ID NO: 13) and a transthyretin promoter (SEQ ID NO: 14). Each element of the gene switch was on a separate plasmid. Receptor expression was under the control of a CMV promoter (SEQ ID NO: 15). Induction was evaluated by the amount of reporter protein expressed in the presence of ligand.
SEAP expression in serum of mice was evaluated after electroporation of the gene switch into mouse quadriceps. Mice were anesthetized with 2 μL/g of a mixture of ketamine (100 mg/mL) and xylazine (20 mg/mL). Animals were then shaved, DNA vectors injected into the muscle in a volume of 2×50 μL polyglutamic acid (12 mg/mL water), electrode conductivity gel applied, and an electrode caliber (1 cm×1 cm; model 384) was placed on hind leg. The muscle was electroporated with 200 V/cm, 8 times, for 20 msec/pulse, at 1 sec time intervals. The transverse electrical field direction was reversed after the animals received half of the pulses. Electroporation was performed with an ECM 830 electroporator from BTX Molecular Delivery Systems.
[…] In other experiments the concentration of ligand was decreased to 26 nmol/50 μL of DMSO/mouse. […]
Mouse serum was obtained by centrifugation of blood acquired by retroorbital bleeding with a small glass capillary tube. SEAP quantification was determined using a Clontech Great Escape chemiluminescence kit and by comparison with the Clontech SEAP standard. […]

SMILES	EC50 ([1]; R)	RMFI (relative maximum fold induction) ([1]; R)	EC50 ([2]; R)	RMFI (relative maximum fold induction) ([2]; R)	melting point	EC50 ([1]; S)	RMFI (relative maximum fold induction) ([1]; S)	EC50 ([2]; S)	RMFI (relative maximum fold induction) ([2]; S)	RTS gene reporter (SEAP) expression in mouse serum [3]
CCC[C@@H](N(NC(=O)c1ccc2ccccc2c1)C(=O)c1cc(C)cc(C)c1)C(C)(C)C [Example 24, (R)-3,5-Dimethyl-benzoic acid N-(1-tert-butyl-butyl)-N′-(naphthalene-2-carbonyl)-hydrazide]	~20 nM	0.80	~200 nM	0.46	91 °C	–	–	–	–	–
CCC[C@@H](N(NC(=O)c1cccc(OC)c1C)C(=O)c1cc(C)cc(C)c1)C(C)(C)C [Example 29, (R)-3,5-Dimethyl-benzoic acid N-(1-tert-butyl-butyl)-N′-(3-methoxy-2-methyl-benzoyl)-hydrazide]	0.078 nM	1.05	~1 nM	1.08	141 to 143 °C	–	–	–	–	–
CCC[C@H](N(NC(=O)c1cccc(OC)c1CC)C(=O)c1cc(C)cc(C)c1)C(C)(C)C [Example 31, (S)-3,5-Dimethyl-benzoic acid N-(1-tert-butyl-butyl)-N′-(2-ethyl-3-methoxy-benzoyl)-hydrazide]	–	–	–	–	–	~30 nM	0.57	136 nM	0.52	does not induce RTS gene reporter expression
C=CC[C@H](N(NC(=O)OCc1ccccc1)C(=O)c1cc(C)cc(C)c1)C(C)(C)C [Example 31.4, (S)—N′-(1-tert-butyl-but-3-enyl)-N′-(3,5-dimethyl-benzoyl)-hydrazine carboxylic acid benzyl ester]	–	–	–	–	150 to 151.5 °C	> 10000 nM	–	> 10000 nM	–	–
